In patent US8217055B2, “Pyrido-pyrazine derivatives useful as herbicidal compounds” (Syngenta Crop Protection LLC, priority 2006, dated 2012):

Columns and labels:
Type in all cases: in vivo
Nasturtium officinale = test: Example B1 herbicidal action, post-emergence, seed trays in climatic chamber (score 10=total damage to plant, 0=no damage to plant); settings: Application post-emergence, 1000 g/ha, evaluated after 9 days
Experimental: (§1) Seeds of a variety of test species were sown in sterilised standard soil in seed trays each having 96 cells. After cultivation for 8 to 9 days cultivation (post-emergence) under controlled conditions in a climatic chamber (cultivation at 23/17° C., day/night; 13 hours light; 50-60% humidity), the plants were treated with an aqueous spray solution of 1000 mg/l of the active ingredient dissolved in 10% DMSO (dimethyl sulfoxide, CAS RN 67-68-5) as a solvent, equivalent to 1000 g/ha. The plants were grown in the climatic chamber after application at (24/19° C., day/night; 13 hours light; 50-60% humidity) and watered twice daily. After 9 days until the test was evaluated (10=total damage to plant, 0=no damage to plant)

Amaranthus retroflexus [1] = test: as above; settings: Application post-emergence, 1000 g/ha, evaluated after 9 days
Experimental: as §1

Stellaria media = test: as above; settings: Application post-emergence, 1000 g/ha, evaluated after 9 days
Experimental: as §1

Solanum nigrum [2] = test: as above; settings: Application post-emergence, 1000 g/ha, evaluated after 9 days
Experimental: as §1

test plants = test: Example B1 herbicidal action, post-emergence, all test plants together; settings: same protocol as Example B1 (post-emergence, 1000 g/ha, 9 days)
Experimental: as §1

[3] = tested on: test plants (a variety of test species); test: Example B2 herbicidal action, post-emergence, pots in glasshouse, evaluated after 13 days (score 10=total damage to plant; 0=no damage to plant); settings: same protocol as Example B2 (post-emergence, evaluated after 13 days)
Experimental: (§2) Seeds of a variety of test species were sown in standard soil in pots. After 8 days cultivation (post-emergence) under controlled conditions in a glasshouse (at 24/16° C., day/night; 14 hours light; 65% humidity), the plants were sprayed with an aqueous spray solution derived from the formulation of the technical active ingredient in acetone/water (50:50) solution containing 0.5% Tween 20 (polyoxyethelyene sorbitan monolaurate, CAS RN 9005-64-5). The test plants were then grown in a glasshouse under controlled conditions in a glasshouse (at 24/16° C., day/night; 14 hours light; 65% humidity) and watered twice daily. After 13 days, the test was evaluated (10=total damage to plant; 0=no damage to plant).

Amaranthus retroflexus [4] = test: Example B3 herbicidal action, post-emergence, small pots in glasshouse (score 10=total damage to plant, 0=no damage to plant); settings: Application post-emergence, 1000 g/ha, evaluated after 13 days
Experimental: (§3) Seeds of a variety of test species were sown in sterilised compost in small pots. After cultivation for seven days (post-emergence) in controlled conditions in the glasshouse (at 24/16° C., day/night; 14 hours light; 65% humidity) the plants were sprayed with 1 mg of the active ingredient, formulated in 2.5 ml acetone/water (50:50) solution, which is equivalent to 1000 g/ha. Once the foliage was dry, the pots were kept in the glasshouse (at 24/16° C., day/night; 14 hours light; 65% humidity), and were watered twice daily. After 13 days the test was evaluated (10=total damage to plant, 0=no damage to plant).

Digitaria sanguinalis = test: as above; settings: Application post-emergence, 1000 g/ha, evaluated after 13 days
Experimental: as §3

Chenopodium album = test: as above; settings: Application post-emergence, 1000 g/ha, evaluated after 13 days
Experimental: as §3

Alopecurus myosuroides = test: as above; settings: Application post-emergence, 1000 g/ha, evaluated after 13 days
Experimental: as §3

Amaranthus retroflexus [5] = test: Example B2 herbicidal action, post-emergence, pots in glasshouse, evaluated after 13 days (10=total damage to plant; 0=no damage to plant); settings: rate 1000 g/ha
Experimental: as §2

Echinochloa crus-galli = test: as above; settings: rate 1000 g/ha
Experimental: as §2

Setaria faberi = test: as above; settings: rate 1000 g/ha
Experimental: as §2

Ipomea hederaceae = test: as above; settings: rate 1000 g/ha
Experimental: as §2

Solanum nigrum [6] = test: as above; settings: rate 1000 g/ha
Experimental: as §2

SMILES | NAAOF (damage to plant) (Nasturtium officinale) | AMARE (damage to plant) (Amaranthus retroflexus [1]) | STEME (damage to plant) (Stellaria media) | SOLNI (damage to plant) (Solanum nigrum [2]) | also measured
CC(C)C(=O)Oc1c(-c2c(F)ccc(F)c2Cl)c(=O)n(CC(F)F)c2nccnc12 [A3] | 7 | 6 | 9 | 5 | –
CC(C)(C)C(=O)Oc1c(-c2ccccc2OC(F)(F)F)c(=O)n(CCCCCl)c2nccnc12 [C1] | – | – | – | – | damage to the test plants (test plants): no damage or very little damage
Cc1ccc(Cl)c(-c2c(OC(=O)C(C)C)c3nccnc3n(CC(F)F)c2=O)c1F [A6] | 7 | 5 | 7 | 0 | –
Cc1ccc(Cl)c(-c2c(OC(=O)C(C)(C)C)c3nccnc3n(CC(F)F)c2=O)c1F [A5] | 5 | 4 | 7 | 2 | –
CC(C)(C)C(=O)Oc1c(-c2c(F)ccc(F)c2Cl)c(=O)n(CC(F)F)c2nccnc12 [A2, 2,2-dimethyl-propionic acid 7-(2-chloro-3,6-difluoro-phenyl)-5-(2,2-difluoro-ethyl)-6-oxo-5,6-dihydro-pyrido[2,3-b]pyrazin-8-yl ester] | 9 | 4 | 9 | 6 | –
O=c1c(-c2c(F)ccc(F)c2Cl)c(O)c2nccnc2n1CC(F)F [B2, 7-(2-chloro-3,6-difluoro-phenyl)-5-(2,2-difluoro-ethyl)-8-hydroxy-5H-pyrido[2,3-b]pyrazin-6-one] | 8 | 6 | 8 | 5 | –
CC(C)(C)C(=O)Oc1c(-c2c(F)ccc(F)c2Cl)c(=O)n(CCCCCl)c2nccnc12 [C4] | 0 | 0 | 1 | 4 | –
CC(C)C(=O)Oc1c(-c2cc(C(F)(F)F)ccc2Cl)c(=O)n(CC(F)F)c2nccnc12 [A7] | 7 | 4 | 8 | 5 | –
CC(C)(C)C(=O)Oc1c(-c2c(F)ccc(F)c2Cl)c(=O)n(CC(F)F)c2ncc(-c3ccccc3)nc12 [A31] | – | – | – | – | damage to the test plants [3]: no damage or very little damage
CC(C)(C)C(=O)Oc1c(-c2ccccc2OC(F)(F)F)c(=O)n(CC(F)F)c2nccnc12 [A1] | 8 | 0 | 7 | 6 | –
Cc1cnc2c(OC(=O)C(C)(C)C)c(-c3c(F)ccc(F)c3Cl)c(=O)n(CC(F)F)c2n1 [A30] | – | – | – | – | damage to the test plants [3]: no damage or very little damage
CC(C)(C)C(=O)Oc1c(-c2ccccc2OC(F)(F)F)c(=O)n(CCC(F)(F)C(F)(F)F)c2nccnc12 [C3] | – | – | – | – | damage to the test plants (test plants): no damage or very little damage
O=c1c(-c2cccc(C(F)(F)F)c2Cl)c(O)c2nccnc2n1CC(F)F [B1] | 6 | 0 | 5 | 6 | –
CC(C)(C)C(=O)Oc1c(-c2c(F)ccc(F)c2Cl)c(=O)n(CCC(F)(F)F)c2nccnc12 [C6] | 0 | 0 | 3 | 1 | –
CC(C)(C)C(=O)Oc1c(-c2ccccc2I)c(=O)n(CC(F)F)c2nccnc12 [A36] | – | – | – | – | AMARE (damage to plant) (Amaranthus retroflexus [4]): 10; DIGSA (damage to plant) (Digitaria sanguinalis): 5; CHEAL (damage to plant) (Chenopodium album): 10; ALOMY (damage to plant) (Alopecurus myosuroides): 8
CC(C)(C)C(=O)Oc1c(-c2c(F)ccc(F)c2Cl)c(=O)n(CCC(F)(F)C(F)(F)F)c2nccnc12 [C7] | 0 | 0 | 0 | 3 | –
CC(C)C(=O)Oc1c(-c2cccc(C(F)(F)F)c2Cl)c(=O)n(CC(F)F)c2nccnc12 [A4] | – | – | – | – | AMARE (damage to plant) (Amaranthus retroflexus [4]): 10; DIGSA (damage to plant) (Digitaria sanguinalis): 7; CHEAL (damage to plant) (Chenopodium album): 10; ALOMY (damage to plant) (Alopecurus myosuroides): 0
CC(C)(C)C(=O)Oc1c(-c2c(F)ccc(F)c2Cl)c(=O)n(CCCCl)c2nccnc12 [C5] | – | – | – | – | damage to the test plants (test plants): no damage or very little damage
CC(C)(C)C(=O)Oc1c(-c2ccccc2OC(F)(F)F)c(=O)n(CCC(F)(F)F)c2nccnc12 [C2] | 0 | 0 | 0 | 4 | –
Cc1cnc2c(n1)c(OC(=O)C(C)(C)C)c(-c1c(F)ccc(F)c1Cl)c(=O)n2CC(F)F [A29] | – | – | – | – | damage to the test plants [3]: no damage or very little damage
CC(C)(C)C(=O)Oc1c(-c2cc(C(F)(F)F)ccc2Cl)c(=O)n(CC(F)F)c2nccnc12 [A8] | 7 | 6 | 7 | 6 | –
COc1cccc(-c2c(OC(=O)C(C)C)c3nccnc3n(CC(F)F)c2=O)c1OC [A15] | – | – | – | – | AMARE damage score (10=total damage to plant; 0=no damage to plant) (Amaranthus retroflexus [5]): 6; ECHCG damage score (10=total damage to plant; 0=no damage to plant) (Echinochloa crus-galli): 8; SETFA damage score (10=total damage to plant; 0=no damage to plant) (Setaria faberi): 9; IPOHE damage score (10=total damage to plant; 0=no damage to plant) (Ipomea hederaceae): 9; SOLNI damage score (10=total damage to plant; 0=no damage to plant) (Solanum nigrum [6]): 10
CC(C)(C)C(=O)Oc1c(-c2cc(F)c(F)cc2Cl)c(=O)n(CC(F)F)c2nccnc12 [A33] | – | – | – | – | AMARE damage score (10=total damage to plant; 0=no damage to plant) (Amaranthus retroflexus [5]): 10; ECHCG damage score (10=total damage to plant; 0=no damage to plant) (Echinochloa crus-galli): 4; SETFA damage score (10=total damage to plant; 0=no damage to plant) (Setaria faberi): 7; IPOHE damage score (10=total damage to plant; 0=no damage to plant) (Ipomea hederaceae): 7; SOLNI damage score (10=total damage to plant; 0=no damage to plant) (Solanum nigrum [6]): 10
CC(C)(C)C(=O)Oc1c(-c2cc(F)c(Cl)cc2Cl)c(=O)n(CC(F)F)c2nccnc12 [A17] | – | – | – | – | AMARE damage score (10=total damage to plant; 0=no damage to plant) (Amaranthus retroflexus [5]): 3; ECHCG damage score (10=total damage to plant; 0=no damage to plant) (Echinochloa crus-galli): 6; SETFA damage score (10=total damage to plant; 0=no damage to plant) (Setaria faberi): 7; IPOHE damage score (10=total damage to plant; 0=no damage to plant) (Ipomea hederaceae): 0; SOLNI damage score (10=total damage to plant; 0=no damage to plant) (Solanum nigrum [6]): 5
CC(C)C(=O)Oc1c(-c2c(Cl)cccc2C(F)(F)F)c(=O)n(CC(F)F)c2nccnc12 [A41] | – | – | – | – | AMARE damage score (10=total damage to plant; 0=no damage to plant) (Amaranthus retroflexus [5]): 10; ECHCG damage score (10=total damage to plant; 0=no damage to plant) (Echinochloa crus-galli): 8; SETFA damage score (10=total damage to plant; 0=no damage to plant) (Setaria faberi): 9; IPOHE damage score (10=total damage to plant; 0=no damage to plant) (Ipomea hederaceae): 9; SOLNI damage score (10=total damage to plant; 0=no damage to plant) (Solanum nigrum [6]): 10
